Assay [1] relates to C. krusei. Briefly: Broth Tube Dilution Test, minimal inhibitory concentration. The settings on record: Pichia kudriavzevii, 28° C., at 72. It is filed as cell-based, Candida krusei. The method, then:
(§1) Minimal Inhibitory Concentration (MIC) The test compounds are serially diluted in pure dimethylformamide, giving a concentration of 4000, 800, 160 and 32 micrograms/milliliters(μg./ml.).A further dilution (typically a 2-fold or a 5-fold dilution) is made from each of the above serial dilutions into tubes containing 9.4 ml. BactoSabouraud Dextrose Broth, resulting in a set of broth tubes with specific final drug concentrations for which activity is to be determined. Each of the broth tubes is then inoculated with 0.5 ml. of a stock suspension of the same test organism. After inoculation, all of the tubes are incubated at 28° C. The tubes are read 48 hours to 7 days post inoculation, depending on the organism being tested. The lowest concentration of test compound at which growth of the organism is prevented in the broth tubes is taken as the minimal inhibitory concentration (MIC). The Broth+Serum Dilution Test is performed in the same manner as the Broth Tube Dilution Test except that the liquid medium consists of 50% BactoSabouraud Dextrose Broth and 50% normal calf serum from citrated blood.

Assay [2] relates to C. parapsilosis. Briefly: Broth Tube Dilution Test, minimal fungicidal concentration. It is filed as cell-based, Candida parapsilosis. The settings on record: Lodderomyces parapsilosis, 28° C., 24 hours later. How it is done:
as §1, with “The” for “Minimal Inhibitory Concentration (MIC) The”, “blood. […] The tubes are then read and the lowest concentration of test compound for which there is no growth of the organism in the broth tube is taken as the minimal fungicidal concentration (MFC).” for “blood.”

The test system of assay [3] is C. parapsilosis. The assay is described as follows: Broth Tube Dilution Test, minimal inhibitory concentration. The assay is classed as cell-based, Candida parapsilosis. The settings on record: Lodderomyces parapsilosis, 28° C., at 72. How it is done:
as §1

Assay [4] has as its system C. guilliermondi. Described as above. The assay is classed as cell-based, Candida gulliermondi. The settings on record: Candida, 28° C., at 72. The method, then:
as §1

For assay [5], the system named is Geotrichum candidum. Briefly: Broth Tube Dilution Test, minimal fungicidal concentration. The assay is classed as cell-based. The settings on record: 28° C., 24 hours later. The method, then:
as §1, with “The” for “Minimal Inhibitory Concentration (MIC) The”, “blood. Minimal Fungicidal Concentrations (MFC) For a determination of fungicidal activity, the broth tubes described above are incubated at 28° C. for 48 hours and then serially diluted 1:100 into Bacto-Sabouraud Dextrose Broth and incubated again for 48 hours. The tubes are then read and the lowest concentration of test compound for which there is no growth of the organism in the broth tube is taken as the minimal fungicidal concentration (MFC).” for “blood.”

Assay [6] deals with C. stellatoidea. Described as above. It is filed as cell-based. The settings on record: Candida albicans, 28° C., 24 hours later. The method, then: as §1, with “The” for “Minimal Inhibitory Concentration (MIC) The”, “blood. Minimal Fungicidal Concentrations (MFC) For a determination of fungicidal activity, the broth tubes described above are incubated at 28° C. for 48 hours and then serially diluted 1:100 into Bacto-Sabouraud Dextrose Broth and incubated again for 48 hours. The tubes are then read and the lowest concentration of test compound for which there is no growth of the organism in the broth tube is taken as the minimal fungicidal concentration (MFC).” for “blood.”

Assay [7] concerns C. tropicalis. Described as above. It is filed as cell-based. As to conditions: Candida tropicalis, 28° C., 24 hours later. The method, then:
as §1, with “The” for “Minimal Inhibitory Concentration (MIC) The”, “blood. Minimal Fungicidal Concentrations (MFC) For a determination of fungicidal activity, the broth tubes described above are incubated at 28° C. for 48 hours and then serially diluted 1:100 into Bacto-Sabouraud Dextrose Broth and incubated again for 48 hours. The tubes are then read and the lowest concentration of test compound for which there is no growth of the organism in the broth tube is taken as the minimal fungicidal concentration (MFC).” for “blood.”

Assay [8] relates to C. albicans. The assay is described as above. The assay is classed as cell-based. The settings on record: Candida albicans, 28° C., 24 hours later. How it is done:
as §1, with “The” for “Minimal Inhibitory Concentration (MIC) The”, “blood. Minimal Fungicidal Concentrations (MFC) For a determination of fungicidal activity, the broth tubes described above are incubated at 28° C. for 48 hours and then serially diluted 1:100 into Bacto-Sabouraud Dextrose Broth and incubated again for 48 hours. The tubes are then read and the lowest concentration of test compound for which there is no growth of the organism in the broth tube is taken as the minimal fungicidal concentration (MFC).” for “blood.”

For assay [9], the system named is C. guilliermondi. The assay is described as above. It is filed as cell-based, Candida gulliermondi. The settings on record: Candida, 28° C., 24 hours later. How it is done: as §1, with “The” for “Minimal Inhibitory Concentration (MIC) The”, “blood. […] The tubes are then read and the lowest concentration of test compound for which there is no growth of the organism in the broth tube is taken as the minimal fungicidal concentration (MFC).” for “blood.”

The test system of assay [10] is Geotrichum candidum. The assay is described as follows: Broth Tube Dilution Test, minimal inhibitory concentration. The assay is classed as cell-based. As to conditions: 28° C., at 72. How it is done:
as §1

Assay [11] relates to C. stellatoidea. The assay is described as above. The assay is classed as cell-based. As to conditions: Candida albicans, 28° C., at 72. The method, then:
as §1

Assay [12] relates to C. tropicalis. Described as above. As to conditions: Candida tropicalis, 28° C., at 72. It is filed as cell-based. The method, then: as §1
Assay [13] has as its system C. albicans. Described as above. The assay is classed as cell-based. The settings on record: Candida albicans, 28° C., at 72. How it is done:
as §1

Assay [14] has as its system C. krusei. Briefly: Broth Tube Dilution Test, minimal fungicidal concentration. It is filed as cell-based, Candida krusei. The settings on record: Pichia kudriavzevii, 28° C., 24 hours later. How it is done: as §1, with “The” for “Minimal Inhibitory Concentration (MIC) The”, “blood. […] The tubes are then read and the lowest concentration of test compound for which there is no growth of the organism in the broth tube is taken as the minimal fungicidal concentration (MFC).” for “blood.”

In the case of `CCc1ccc2c(ccc3c[n+]4c5ccc(N6CCCC6)cc5ccc4n32)c1.[Cl-]` [Example 26, 10-Ethyl-3-(1-pyrrolidinyl)imidazo[1,2-a: 3,4-a']diquinolin-15-ium chloride], the MIC with C. krusei [1] worked out at 2.5 µg/mL; against C. parapsilosis [3] it was 5 µg/mL; against C. guilliermondi [4] it was 10 µg/mL; against Geotrichum candidum [10], 5 µg/mL; in the assay on C. stellatoidea [11], 1.25 µg/mL; against C. tropicalis [12], 10 µg/mL. Also, in the assay with C. albicans [13], the MIC was 2.5 µg/mL. For the same compound, the minimum fungicidal concentration (MFC) against C. parapsilosis [2] is greater than 10 µg/mL; with Geotrichum candidum [5], greater than 10 µg/mL; against C. stellatoidea [6] it was 5 µg/mL; in the assay on C. tropicalis [7], greater than 10 µg/mL; in the assay on C. albicans [8], 2.5 µg/mL; with C. guilliermondi [9] it was greater than 10 µg/mL. In the assay on C. krusei [14], the MFC stood at 2.5 µg/mL.

Consider `CC(C)(C)c1ccc2c(ccc3c[n+]4c5ccc(N6CCCC6)cc5ccc4n32)c1.[Cl-]` [Example 7, 10-(1,1-Dimethylethyl)-3-(1-pyrrolidinyl)imidazo[1,2-a:3,4-a']diquinolin-15-ium Chloride], for which the MIC in the assay on C. krusei [1] was 10 µg/mL; against C. parapsilosis [3], 10 µg/mL; in the assay on C. guilliermondi [4], 2.5 µg/mL; with Geotrichum candidum [10] it was 10 µg/mL; with C. stellatoidea [11] it was 2.61 µg/mL; against C. tropicalis [12] it was greater than 10 µg/mL. For the same compound, the MIC against C. albicans [13] came to 10 µg/mL. For the same compound, the MFC against C. parapsilosis [2] was greater than 10 µg/mL; against Geotrichum candidum [5], greater than 10 µg/mL; against C. stellatoidea [6], 5 µg/mL; against C. tropicalis [7], greater than 10 µg/mL; in the assay on C. albicans [8], 10 µg/mL; in the assay on C. guilliermondi [9] it was 2.5 µg/mL. The compound further yielded an MFC in the assay on C. krusei [14] of 10 µg/mL.

As a reminder, the MIC is the smallest concentration in the dilution series that meets the test's criterion for growth inhibition. A low value points to a more susceptible organism. Usually MFC stands for the lowest tested concentration that kills the fungus rather than only halting it. Read a high MFC as less potent killing.

For the origin of these results see patent publication US4207320A, “Amino-substituted imidazo[1,2-a:3,4-a']diquinolin-15-ium salts compositions and method of use” (Warner-Lambert Company, priority 1978, dated 1980).
